Results from article PMC8600407 (Soft matter, 2021).

What was measured:
[1] = hydrophobicity of the aromatic group; source not stated; cited from earlier work
[2] = system: alkaline phosphatase (ALP); conditions: fff derivatives 8 mM, ALP 1.0 or 0.1 UmL^-1

Compound	logP [1]	enzymatic hydrogelation, times faster than pB as enzyme trigger [2]
c1ccc(-c2ccccc2)cc1 [biphenyl]	3.71	
O=C(O)c1ccc(-c2ccc(OP(=O)(O)O)cc2)cc1 [pBP, phosphohydroxybiphenyl-carboxylic acid]		50–60 times
phosphohydroxynaphthoic acid [pNP]		50–60 times
